Test results as given in ChEMBL document CHEMBL1201862, “PubChem BioAssay data set” (2004).
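All cell lines were grown in 96-well plates and treated with compound for 48 hours. GI50 marks 50% less growth.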 The source made the active and inactive calls. Rule as the data show it: active = GI50 up to about 1.1 µM and inactive = higher.

Tests used:
Test in all cases: growth of human tumour cells (NCI), 48 h
[1] = system: OVCAR-3
[2] = system: SK-OV-3
[3] = system: RXF 393
[4] = system: SK-MEL-28
[5] = system: SW-620
[6] = system: SK-MEL-2
[7] = system: NCI-H522
[8] = system: Malme-3M
[9] = system: HT-29
[10] = system: HOP-92
[11] = system: SF-539
[12] = system: NCI-H460
[13] = system: OVCAR-4
[14] = system: M14
[15] = system: SN12C
[16] = system: TK-10

Measured: GI50

OC(c1ccccc1)(c1ccccc1)c1ccncc1
inactive: [1] > 100 µM | [2] > 100 µM | [3] > 100 µM | [4] > 100 µM | [5] > 100 µM | [6] > 100 µM | [7] > 100 µM | [8] > 100 µM | [9] > 100 µM | [10] 74 µM | [11] 59.4 µM | [12] > 100 µM | [13] > 100 µM | [14] > 100 µM | [15] > 100 µM | [16] > 100 µM

CC(=O)NC(CCCNC(=O)NCCCl)C(=O)NCc1ccccc1 (stereo not given)
inactive: [1] > 100 µM | [3] > 100 µM | [4] > 100 µM | [5] > 100 µM | [6] > 100 µM | [7] > 100 µM | [8] > 100 µM | [9] > 100 µM | [10] > 100 µM | [11] > 100 µM | [12] > 100 µM | [13] > 100 µM | [14] > 100 µM | [15] > 100 µM | [16] > 100 µM

CCOP(=O)(OCC)/C(C#N)=C/c1ccc[nH]1
inactive: [1] > 100 µM | [2] > 100 µM | [3] > 100 µM | [4] > 100 µM | [5] > 100 µM | [6] > 100 µM | [7] > 100 µM | [8] > 100 µM | [9] > 100 µM | [10] > 100 µM | [11] > 100 µM | [12] > 100 µM | [13] > 100 µM | [14] > 100 µM | [15] > 100 µM | [16] 74.6 µM

CN(c1ccccc1)C1C(=O)N(c2ccccc2)C1/C=C/c1ccccc1 (stereo not given)
inactive: [1] > 100 µM | [2] > 100 µM | [3] > 100 µM | [4] > 100 µM | [5] > 100 µM | [6] > 100 µM | [7] > 100 µM | [8] > 100 µM | [9] > 100 µM | [10] > 100 µM | [11] > 100 µM | [12] > 100 µM | [15] > 100 µM | [16] > 100 µM

CN(C)CN(C)c1nc(N(C)C)nc(N(C)C)n1
inactive: [1] > 100 µM | [2] > 100 µM | [3] 61.1 µM | [4] > 100 µM | [5] > 100 µM | [6] > 100 µM | [7] > 100 µM | [8] > 100 µM | [9] > 100 µM | [10] > 100 µM | [11] > 100 µM | [12] > 100 µM | [13] > 100 µM | [14] > 100 µM | [15] > 100 µM | [16] > 100 µM

N#Cc1ccc(Sc2ccccc2)cc1C#N
inactive: [1] > 100 µM | [2] 54 µM | [3] 33 µM | [4] > 100 µM | [6] > 100 µM | [7] 31.7 µM | [8] > 100 µM | [9] > 100 µM | [10] 30.1 µM | [11] 19.7 µM | [12] 22.2 µM | [13] > 100 µM | [14] > 100 µM | [15] 60.3 µM | [16] 80.5 µM

C/C(=N/N)c1sc(-c2nc(C)c(/C(C)=N\N)s2)nc1C
inactive: [1] > 100 µM | [2] > 100 µM | [3] > 100 µM | [4] > 100 µM | [5] > 100 µM | [6] > 100 µM | [7] > 53.6 µM | [8] > 100 µM | [9] > 80.9 µM | [10] > 100 µM | [11] > 100 µM | [12] 59.3 µM | [13] > 100 µM | [14] > 95.3 µM | [15] > 100 µM | [16] > 100 µM

O=C1C=C(Nc2ccccc2C(=O)CC(=O)C(=O)Nc2ccc(Cl)cc2)c2ccccc2C1=O
inactive: [1] 2.39 µM | [2] 26.2 µM | [3] 11.5 µM | [4] 16.7 µM | [5] 7.11 µM | [6] 17.2 µM | [7] 7.85 µM | [8] 11.8 µM | [9] 41.5 µM | [10] 21.9 µM | [11] 20.1 µM | [12] 16.3 µM | [13] 10.9 µM | [14] 10.9 µM | [15] 12.6 µM | [16] > 74.5 µM

COc1cc2ccnc3c(=C(SC)SC)c(=O)c(c1OC)c23
inactive: [1] 14.9 µM | [2] > 100 µM | [3] 13 µM | [4] 13 µM | [5] 15.7 µM | [6] 16.2 µM | [7] 1.56 µM | [8] 11.4 µM | [9] 12.3 µM | [10] 5.64 µM | [11] 17.4 µM | [12] 35.3 µM | [13] 15.8 µM | [14] 13.9 µM | [15] 15.2 µM | [16] 14 µM

COc1cc(=O)oc(/C=C/CO)c1C
inactive: [1] > 100 µM | [2] > 100 µM | [3] > 100 µM | [4] > 100 µM | [5] > 100 µM | [7] 28.9 µM | [8] > 100 µM | [9] > 100 µM | [10] > 100 µM | [11] > 100 µM | [13] > 100 µM | [14] > 100 µM | [15] > 100 µM | [16] > 100 µM

O=C1OC(CC(=O)c2ccc(Cl)cc2Cl)C(Cl)=C1Cl (stereo not given)
inactive: [1] 33.8 µM | [2] > 36.1 µM | [3] 18.2 µM | [4] 19.1 µM | [5] 19.4 µM | [6] 19.8 µM | [7] 17.6 µM | [8] 19.7 µM | [9] 18.7 µM | [10] 18.9 µM | [11] 22 µM | [12] > 57.3 µM | [13] 42.6 µM | [14] 27.2 µM | [15] 18.9 µM | [16] > 55.5 µM

COc1ccc2nc3cc(Cl)ccc3c(Sc3ccccc3[N+](=O)[O-])c2c1
inactive: [1] > 100 µM | [2] 58.1 µM | [3] 49.5 µM | [4] > 100 µM | [5] > 100 µM | [6] > 100 µM | [7] > 100 µM | [8] > 100 µM | [10] 90.2 µM | [11] 58.1 µM | [12] > 100 µM | [13] > 100 µM | [14] > 100 µM | [15] 28.1 µM | [16] 81.8 µM

COc1ccc(C2Oc3cc(OC)c(O)c(C)c3[C@H]2C)cc1 (stereo not given in full)
inactive: [1] > 100 µM | [2] > 100 µM | [3] 23 µM | [4] > 100 µM | [5] 66.4 µM | [6] > 100 µM | [7] 35.2 µM | [8] > 100 µM | [9] > 100 µM | [10] > 100 µM | [11] > 100 µM | [12] 38.2 µM | [13] 80.4 µM | [14] > 100 µM | [16] > 100 µM
